# Legend:
# [1] = tested on: Colon adenocarcinoma cells LS174T; assay: RNA disruption in LS174T cells; format: cell-based; conditions: 24 hr, FIG. 20A
# Method: Colon adenocarcinoma cells LS174T were incubated with Sunitinib, a receptor tyrosine kinase inhibitor. RNA was isolated from the cells and analyzed using an Agilent Bioanalyzer.
# RNA was isolated from the cells and analyzed using an Agilent Bioanalyzer.
# [2] = tested on: A2780 ovarian cancer cells; assay: RNA disruption in drug-treated A2780 cells (Agilent Bioanalyzer electropherogram/gel); format: cell-based, human; conditions: for Low C Area/(28S+18S) vs docetaxel dose: method 400; for RNA electropherogram banding pattern: 24 hours at 37° C.
# Method: RNA was isolated from ovarian cancer cell line A2780 cells which had been treated with 10 μM docetaxel in 50% media or 20 μM epirubicin, each in 50% media. Cells were treated with the chemotherapeutic for 24 hours at 37° C. Isolated RNA was separated by microcapillary electrophoresis using the Agilent 2100 Bioanalyzer.
# Cells were plated and treated with docetaxel concentrations ranging from 0.001-40 μM for 24 to 72 hours to assess the effect on cell number, RNA content, and integrity (measured using a Bioanalyzer 2100 from Agilent Technologies, Inc.).
# RNA was isolated and electrophoretically separated on an Agilent Bioanalyzer. As shown in FIG. 9D bands appeared just below the 28S (e.g. intermediate) and 18S bands (e.g. low banding region) at 0.005 uM and peaked at 0.2 uM.
# A time course experiment was conducted in A2780 cells. Cells were treated for up to 72 hours with docetaxel at 0.005 uM and 0.2 uM. RNA was isolated and run on an Agilent Bioanalyzer.
# Plots of the combination of features Intermediate Area/(28S+18S) and Low C Area/(28S+18S) were generated using the method 400 although method 300 may also be used.
# [3] = tested on: A2780 ovarian cancer cells; assay: Amount of RNA per cell in A2780 cells treated with docetaxel; format: cell-based, human
# Method: A2780 cells treated for up to 72 hours with docetaxel at 0.005 uM and 0.2 uM, were analyzed for the amount of RNA per cell. RNA was isolated and electophoretically separated using an Agilent Bioanalyzer.
# A2780 cells = assay: Recovery Assay after docetaxel treatment; format: cell-based, human; conditions: 0.2 uM docetaxel up to 72 hours, washed, replated in drug-free media, FIG. 9C
# Method: A Recovery Assay was next carried out to determine if A2780 cells could recover from treatment with 0.2 uM docetaxel. A2780 cells were treated with 0.2 uM docetaxel for up to 72 hours and then washed and replated in drug-free media.
# [4] = tested on: docetaxel-resistant A2780DXL cells; assay: RNA disruption in docetaxel-resistant A2780 cells; format: cell-based, human
# Method: A docetaxel A2780 resistant cell line was made as described in Li et al., Int. J. Mol. Med 2004 14(20): 257-264.
# A time course experiment was conducted. Sensitive parental and docetaxel resistant A2780 cells were treated with docetaxel for 24 hours. RNA was isolated and run on an Agilent Bioanalyzer.
# xenograft tumours = assay: RNA from docetaxel-treated xenograft tumours after storage in liquid nitrogen or saline (Agilent 2100 Bioanalyzer); format: in vivo; set-up: 18S Area / 28S Area / RNA Area: unit not given here
# Method: RNA isolated from xenograft tumours stored in liquid nitrogen, RNALater™ solution or left in saline for 1h, 2h, 5h and 24h to induce autocatalytic degradation was analyzed by measuring an RNA Integrity Number (RIN) using Agilent 2100 Bioanalyzer. […] Circles above the gel lanes indicate that an RIN number could be calculated (FIG. 8A). Circles encapsulated by squares indicate samples for which an RIN number could not be calculated. Control samples were untreated xenograft tumours (1-7). Treated samples (8-12) were given docetaxel. Various measurements for the data shown in FIGS. 8B-8M follow in Tables 3.1 to 3.12.
# [5] = tested on: A2780 ovarian cancer cells; assay: Cell counts of A2780 cells treated with docetaxel; conditions: up to 72 hours, FIG. 9A
# Method: A2780 cells were treated for up to 72 hours with docetaxel at 0.005 uM and 0.2 uM. Cell counts were measured at each time-point.
# [6] = tested on: A2780 ovarian cancer cells; assay: Effect of caspase inhibitor on RNA integrity changes in docetaxel-treated cells; format: cell-based, human; conditions: FIG. 9J
# Method: The effect of a caspase inhibitor on RNA integrity changes was next assessed. Cells were treated with or without docetaxel at a concentration of 0.2 uM in the presence or absence of the caspase inhibitor Q-DEVD-OPH (Biovision Laboratories) at a concentration of 10 uM.
# [7] = tested on: Jurkat T leukemia cell line; conditions: Fimognari et al 2009; cited from earlier work
# tumour sample = assay: Maximal RDI score in tumour biopsies of patients on neo-adjuvant Zometa; format: in vivo, human; conditions: after the first cycle, FIG. 17C and 17D
# Method: Biopsy samples were obtained from patients undergoing neo-adjuvant therapy with Zometa. RNA was isolated and analyzed using the Agilent Bioanalyzer. Electropherograms were analyzed using the methods 100 and 400 and the maximal RDI score was graphed for each tumour sample at each time-point.
# [8] = tested on: Colon adenocarcinoma cells SW480; assay: RNA disruption in SW480 cells; format: cell-based; conditions: 72 hr, FIG. 20C
# Method: Colon adenocarcinoma cells SW480 were incubated with Epirubicin, a DNA synthesis inhibitor. RNA was isolated from the cells and analyzed using an Agilent Bioanalyzer. RNA Disruption is evident at 72 hr at […] (see FIG. 20C).
# [9] = tumour left in saline 1h, sample 9
# [10] = tumour left in saline 2h, sample 10
# [11] = tumour left in saline 5h, sample 11
# [12] = tumour left in saline 24h, sample 12
# [13] = tumour stored in liquid nitrogen, sample 8
compound,measurement,setting,value
CCN(CC)CCNC(=O)c1c(C)[nH]c(/C=C2\C(=O)Nc3ccc(F)cc32)c1C [Sunitinib],concentration at which RNA Disruption is evident,[1],54 mM
CC(=O)O[C@@]12CO[C@@H]1C[C@H](O)[C@@]1(C)C(=O)[C@H](O)C3=C(C)[C@@H](OC(=O)[C@H](O)[C@@H](NC(=O)OC(C)(C)C)c4ccccc4)C[C@@](O)([C@@H](OC(=O)c4ccccc4)[C@H]21)C3(C)C [docetaxel],Low C Area/(28S+18S) vs docetaxel dose,"[2]; 8 hr, 24 hr, or 48 hr",Little change
same,docetaxel concentration at which banding below 28S and 18S peaked,"[2]; 24 hours, 0 to 40 uM, FIG. 9D",0.2 µM
same,docetaxel concentration at which bands appeared just below the 28S and 18S bands,"[2]; 24 hours, 0 to 40 uM, FIG. 9D",0.005 µM
same,docetaxel concentration at which additional bands are visible on gel,"[2]; FIG. 9D, 24 hours",0.05 µM
same,docetaxel concentrations giving dose and time-dependent reductions in cell number and cell RIN values while RDI increased,[2]; RDI = Intermediate Area/(28S+18S),≥ 0.1 µM
same,Low C Area/(28S+18S) vs docetaxel dose,[2]; after 72 hr,dramatic increase
same,Intermediate/(28S+18S),"[2]; docetaxel 0.005 uM and 0.2 uM, 24 to 72 hours, FIG. 9F",increases dramatically with time
same,Low banding area/(28S+18S),"[2]; docetaxel 0.005 uM and 0.2 uM, 24 to 72 hours, FIG. 9G",also increases with time
same,RNA banding in time course,"[2]; docetaxel 0.005 uM and 0.2 uM, up to 72 hours, FIG. 9H",banding appears below the 28S and 18S bands at all time-points
same,RNA electropherogram banding pattern,"[2]; docetaxel 10 μM in 50% media, FIG. 2",shows an intermediate peak and a peak adjacent to the 18S peak
same,RIN,[2]; docetaxel concentrations ≥0.005 uM,did not change significantly
same,docetaxel concentration at which banding appears below the 28S and 18S bands,"[2]; sensitive parental cells, 24 hours, FIG. 9I",0.005 µM
same,amount of RNA per cell,"[3]; docetaxel 0.005 uM and 0.2 uM, up to 72 hours, FIG. 9B",increase in a time-dependent and dose-dependent manner
same,RNA content per cell,[3]; low docetaxel concentrations,increased per cell
same,resumption of cell proliferation after drug withdrawal,A2780 cells,No resumption of cell proliferation
same,RNA disruption and cellular RNA content,[4]; A2780DXL cells treated with docetaxel,did not result in RNA disruption or changes in cellular RNA content
same,RNA banding below the 28S and 18S bands,"[4]; resistant cells, docetaxel 24 hours, FIG. 9I",no banding is evident
same,18S % of total Area,xenograft tumours; [9],8.3%
same,18S Area,xenograft tumours; [9],13.2
same,28S % of total Area,xenograft tumours; [9],6.4%
same,28S Area,xenograft tumours; [9],10.2
same,RNA Area,xenograft tumours; [9],158.5
same,RNA Concentration,xenograft tumours; [9],85 ng/µL
same,rRNA Ratio [28 s/18 s],xenograft tumours; [9],0.8
same,18S % of total Area,xenograft tumours; [10],9.8%
same,18S Area,xenograft tumours; [10],27.3
same,28S % of total Area,xenograft tumours; [10],6.6%
same,28S Area,xenograft tumours; [10],18.5
same,RNA Area,xenograft tumours; [10],278.5
same,RNA Concentration,xenograft tumours; [10],150 ng/µL
same,RNA Integrity Number (RIN),xenograft tumours; [10],6.5 (B.02.06)
same,RNA Ratio [28 s/18 s],xenograft tumours; [10],0.7
same,18S % of total Area,xenograft tumours; [11],6.5%
same,18S Area,xenograft tumours; [11],15.4
same,28S % of total Area,xenograft tumours; [11],6.6%
same,28S Area,xenograft tumours; [11],15.4
same,RNA Area,xenograft tumours; [11],235.4
same,RNA Concentration,xenograft tumours; [11],127 ng/µL
same,rRNA Ratio [28 s/18 s],xenograft tumours; [11],1.0
same,18S % of total Area,xenograft tumours; [12],1.1%
same,18S Area,xenograft tumours; [12],1.9
same,RNA Area,xenograft tumours; [12],168.9
same,RNA Concentration,xenograft tumours; [12],91 ng/µL
same,RNA Integrity Number (RIN),xenograft tumours; [12],2.7 (B.02.06)
same,rRNA Ratio [28 s/18 s],xenograft tumours; [12],0.0
same,18S % of total Area,xenograft tumours; [13],18.4%
same,18S Area,xenograft tumours; [13],46.1
same,28S % of total Area,xenograft tumours; [13],21.8%
same,28S Area,xenograft tumours; [13],54.6
same,RNA Area,xenograft tumours; [13],250.5
same,RNA Concentration,xenograft tumours; [13],135 ng/µL
same,RNA Integrity Number (RIN),xenograft tumours; [13],9.1 (B.02.06)
same,rRNA Ratio [28 s/18 s],xenograft tumours; [13],1.2
same,docetaxel concentrations at which cell numbers remained constant,[5],greater than or equal to 0.005 uM
Q-DEVD-OPH,bands below the 28S and 18S bands,[6]; 0.2 uM docetaxel with or without 10 uM caspase inhibitor,detectable in the presence and absence
same,effect on loss of 28S and 18S bands,"[6]; 10 uM inhibitor with 0.2 uM docetaxel, 72 hr",reduces the loss of 28S and 18S bands
COc1cccc2c1C(=O)c1c(O)c3c(c(O)c1C2=O)C[C@@](O)(C(=O)CO)C[C@@H]3O[C@H]1C[C@H](N)[C@H](O)[C@H](C)O1 [doxorubicin],susceptibility of total RNA to chemical attack,[7],susceptible to chemical attack
O=P(O)(O)C(O)(Cn1ccnc1)P(=O)(O)O [Zometa],RDI values,tumour sample,increased in some patients
COc1cccc2c1C(=O)c1c(O)c3c(c(O)c1C2=O)C[C@@](O)(C(=O)CO)C[C@@H]3O[C@H]1C[C@H](N)[C@@H](O)[C@H](C)O1 [epirubicin],RNA electropherogram banding pattern,"[2]; epirubicin 20 μM in 50% media, FIG. 3",intermediate bands between the 18S and 28S peaks
same,concentration at which RNA Disruption is evident,[8],0.5 mM

# — patent US12633374B2, “Method for determining efficacy of chemotherapy treatment for a subject” (RNA Diagnostics Inc., priority 2012, dated 2026)
